# Measurements from patent publication US7652172B2, “Expeditious synthesis of DPD” (The Trustees of Princeton University, priority 2004, dated 2010).
# Tests used:
# [1] = tested on: V. harveyi strain MM32 (luxN− luxS−); experiment: V. harveyi autoinducer bioassay (light emission); type: cell-based; conditions: for activity compared with enzymatically prepared DPD in the V. harveyi bioassay: equal concentration, 0.5 M potassium phosphate buffer, pH 7.3
# Description: (§1) V. harveyi strain MM32 (luxN^− luxS^−) was grown overnight and subsequently diluted 5.000-fold in AB growth medium. This bioassay was performed as developed by the method of Schauder et. al. (2001). To 90 μL of diluted cells ,10 μL of various compounds were added, and the resulting cultures were further incubated in a 96-well microtiter dish at 30° C. for approximately 6 h. The concentration of crude DPD was calculated by measuring the amount of homocysteine released in an Ellman's test. Light emission was measured using a Wallac model 1450 microbeta Plus scintillation counter.
# A. Comparative bioactivity of enzymatically-produced DPD, synthetic DPD and synthetic ent-DPD. Each of these three compounds and a blank were assessed in the above bioassay at equal concentrations. The bio assays were conducted with a dilution of 0.53 mM enzymatically-produced DPD, a dilution of 5.0 mM synthetic DPD or a dilution of 5.0 mM ent-DPD.
# [2] = 11B NMR DPD-borate binding study; type: physicochemical; conditions: 100 μM DPD in 400 μM B(OH)3, pH 7.5
# Description: To explore the binding of DPD with borate under conditions that more closely resemble those in the natural habitat of V. harveyi and to correlate this study with previous work using DPD produced in vivo and released from the V. harveyi receptor protein, LuxP, the ^11B NMR spectrum of a 100 μM DPD solution in 400 μM B(OH)3 (Dickson et al. 1990) at pH 7.5 was recorded. […] Based on the ratio of integrals for the B(OH)3 peak and the DPD:borate peak, the concentration of DPD:borate complex was calculated to be ca 10 μM. consistent with ca 10% DPD bound at this dilution. We were unable to observe conclusively the presence of complexes with a 2:1 DPD:borate stoichiometry due to sensitivity limitations of the ^11B NMR experiment, although a peak with a S/N of 2 was recorded at δ 9.8 ppm.
# To explore further the ability of DPD to complexborate at more physiologically relevant concentrations, a mixture of 10 μL of 40 mM B(OH)3, […] of 10 mM DPD, 100 μL of 1 M potassium phosphate buffer (pH 7), 200 μL of sat. NaHCO3 and 680 μL of D2O was produced to generate a 100 μM DPD solution in 400 μM B(OH)3, at pH 7.5. This solution was then analyzed by ^11B NMR to determine binding, as discussed in the Detailed Description of the Invention.
# [3] = Stability of DPD in aqueous solution monitored by 1H NMR; type: physicochemical
# Description: Synthetically-produced DPD was stable under acidic conditions; a 30 mM sample of the molecule was monitored for decomposition via ^1H NMR for 5 h at 20° C. and pH 1.5. […] The purity of the synthetic DPD was further established by reaction with o-phenylenediamine to produce (S)-1-(3-methylquioxalin-2-yl)-ethane-1,2-diol in >98% purity.
# To a suspension of 11 (9.6 mg, […]) in D2O) (1.5 mL) was added conc. D2SO4 (1.5 μL, final pD1.5). The reaction was allowed to continue for 5 h and was monitored by ^1H NMR. A ^1H-^1H DQCOSY spectrum was recorded at the 5-h time point to help establish the identity of each ^1H signal. […] The extra signals in the region form 1.35-1.45 ppm and 3.4-4.6 ppm are most likely due to a small amount of 1 that is not hydrated at C3. This hypothesis is supported by the complete disappearance of these peaks upon addition of 1,2-phenylenediamine (see Example 13)
# [4] = tested on: V. harveyi strain MM32 (luxN− luxS−); experiment: Effects of low pH on DPD bioactivity (V. harveyi bioassay after acid treatment); type: cell-based
# Description: as §1
# B. Effects of low pH on enzmmatically-produced DPD bioactivity. Enzymatically produced DPD (0.53 mM stock concentration) was mixed with sulfuric or hydrochloric acid at a ratio of 1 μL H2SO4 or 5 μL HCl to 250 μL DPD, resulting in solutions with a pH of 1.5 (with H2SO4) or 2 (with HCl). At times indicated, 1 M Tris pH 8.5 was added to restore the pH to neutral and bioactivity was determined. […] Similar results were obtained after exposure to H2SO4 (not shown).
# C. Effects of low pH on synthetic DPD bioactivity. Synthetically-produced DPD (100 mM stock concentration) was mixed with H2SO4 at a ratio of 1 μL H2SO4 to 250 μL DPD, resulting in solutions with a pH of 1.3. After 16 h, 1 M Tris pH 8.5 was added at a ratio of 5 μL buffer to 20 uL DPD solution to restore the pH to 7.5.
# cell growth = experiment: Cell growth inhibition by deprotection by-product; type: cell-based; conditions: concentrations under 1 M
smiles,measurement,setting,value
"CC(=O)C(=O)C(O)CO (stereo not shown) [DPD, 4,5-dihydroxypentane-2,3-dione]",activity in the V. harveyi autoinducer-bioassay,"[1]; deprotection solution with excess borate at pH 7.8, without further purification",active
same,activity compared with enzymatically prepared DPD in the V. harveyi bioassay,[1],equal
same,activity compared with enzymatically prepared DPD in the V. harveyi bioassay,[1]; listed as synthetic DPD,equal in activity
same,DPD bound to borate,[2],~10%
same,concentration of DPD:borate complex,[2]; from ratio of 11B NMR integrals,~10 µM
same,decomposition under acidic conditions by 1H NMR,"[3]; 30 mM, 5 h at 20° C., pH 1.5",no decomposition products were observed
same,stability at basic pH,"[3]; pH>8, unless bound to borate",less stable
same,change in bioactivity after storage under acidic conditions,"[4]; pH 1.5-2, dilute aqueous solution, 16 h at 20° C., DPD at least 30 mM and up to 100 mM",no significant decrease in bioactivity
same,effect of acid treatment on autoinducer activity,"[4]; synthetic, 100 mM, pH 1.3, 16 h, 20° C., listed as Synthetically-produced DPD",no loss in activity
same,effect of acid treatment on autoinducer activity,"[4]; synthetic, 100 mM, pH 1.3, 16 h, 20° C., listed as synthetic DPD",did not change the auto inducer activity
CC(=O)C(=O)[C@H](O)CO [Ent-DPD],activity relative to DPD (1) in the V. harveyi bioassay,[1],1%
O=C1CCCCC1 [cyclohexanone],inhibition of cell growth,cell growth,does not inhibit cell growth
"CC(=O)C(=O)C(O)CO (stereo not shown) [enzymatically-produced DPD, 4,5-dihydroxypentane-2,3-dione, reference compound]",effect of acid treatment on autoinducer activity,"[4]; enzymatically produced, 0.53 mM stock, pH 1.5 (H2SO4) or 2 (HCl), up to 16 h",did not affect the autoinducer activity
